Results on 56 molecules are retold here after patent publication EP4001279A1, “NOVEL SPIROPYRROLIDINE DERIVED ANTIVIRAL AGENTS” (Enanta Pharmaceuticals, Inc., priority 2020, dated 2022).

The assay has as its system 229E human corona virus (hCoV). The experiment in a line: 229E live virus assay (CPE, ATPlite readout in MRC-5 cells). The settings on record: Human coronavirus 229E, MRC5, hCoV-229E live virus, MOI 0.05, ATPlite readout, run in duplicate. The assay is classed as cell-based, hCoV-229E. In general terms: ATP-based viability assays read luminescence as a measure of living cells.

Turning to `CCN(C(=O)OCc1ccccc1)[C@@H](CC(C)C)C(=O)N1C[C@]2(C[C@H]1C#N)C(=O)Nc1ccccc12` [Compound 90], the EC50 was 100 to 1000 nM.
In turn, `CC(C)C[C@H](NC(=O)OCc1ccccc1)C(=O)N1C[C@]2(C[C@H]1C#N)C(=O)Nc1ccccc12` [Example 1] had an EC50 of 100 to 1000 nM.
`N#C[C@@H]1C[C@@]2(CN1C(=O)[C@H](CC1CCC1)NC(=O)OCc1ccccc1)C(=O)Nc1ccccc12` [Example 2] registered a concentration for a half-maximal effect (EC50) of 100 to 1000 nM.
The result for `CC(C)(C)[C@H](NC(=O)OCc1ccccc1)C(=O)N1C[C@]2(C[C@H]1C#N)C(=O)Nc1ccccc12` [Example 3] reads above 1000 nM.
As for `N#C[C@@H]1C[C@@]2(CN1C(=O)[C@H](CC1CC1)NC(=O)OCc1ccccc1)C(=O)Nc1ccccc12` [Example 4], the EC50 lay within 100 to 1000 nM.
For `CC(C)(C)C[C@H](NC(=O)OCc1ccccc1)C(=O)N1C[C@]2(C[C@H]1C#N)C(=O)Nc1ccccc12` [Example 5] the value was 100 to 1000 nM.
The result for `COc1cccc2[nH]c(C(=O)N[C@@H](CC(C)C)C(=O)N3C[C@]4(C[C@H]3C#N)C(=O)Nc3ccccc34)cc12` [Example 11] reads below 100 nM; that for `COc1cccc2[nH]c(C(=O)N[C@H](CC(C)C)C(=O)N3C[C@]4(C[C@H]3C#N)C(=O)Nc3ccccc34)cc12` [Example 12], 100 to 1000 nM.
Molecule `COc1cccc2[nH]c(C(=O)N[C@@H](CC3CCCCC3)C(=O)N3C[C@]4(C[C@H]3C#N)C(=O)Nc3ccccc34)cc12` [Example 13] had an EC50 below 100 nM.
The result for `COc1cccc2[nH]c(C(=O)N[C@H](CC3CCCCC3)C(=O)N3C[C@]4(C[C@H]3C#N)C(=O)Nc3ccccc34)cc12` [Example 14] reads below 100 nM; that for `COc1cccc2[nH]c(C(=O)N[C@@H](CC(C)(C)C)C(=O)N3C[C@]4(C[C@H]3C#N)C(=O)Nc3ccccc34)cc12` [Example 15], below 100 nM; that for `COc1cccc2[nH]c(C(=O)N[C@H](CC(C)(C)C)C(=O)N3C[C@]4(C[C@H]3C#N)C(=O)Nc3ccccc34)cc12` [Example 16], 100 to 1000 nM.
The molecule `COc1cccc2[nH]c(C(=O)N[C@@H](CC3CCC3)C(=O)N3C[C@]4(C[C@H]3C#N)C(=O)Nc3ccccc34)cc12` [Example 17] returned an EC50 below 100 nM.
`CC(C)(C)[C@H](NC(=O)c1cc2c(F)cccc2[nH]1)C(=O)N1C[C@]2(C[C@H]1C#N)C(=O)Nc1ccccc12` [Example 18] yielded an EC50 of 100 to 1000 nM.
The molecule `COc1cccc2[nH]c(C(=O)N[C@@H](CC3CC3)C(=O)N3C[C@]4(C[C@H]3C#N)C(=O)Nc3ccccc34)cc12` [Example 19] returned an EC50 below 100 nM.
The result for `CC(C)(C)C[C@H](NC(=O)c1cc2c(F)c(F)ccc2[nH]1)C(=O)N1C[C@]2(C[C@H]1C#N)C(=O)Nc1ccccc12` [Example 20] reads below 100 nM.
For `CC(C)(C)C[C@H](NC(=O)c1cc2c(F)cccc2[nH]1)C(=O)N1C[C@]2(C[C@H]1C#N)C(=O)Nc1ccccc12` [Example 21] the value was below 100 nM; for `COc1cccc2[nH]c(C(=O)NC(CC(C)C)C(=O)N3CC4(CC3C=O)C(=O)Nc3ccccc34)cc12` (centres unmarked) [Example 23], below 100 nM; for `CC(C)C[C@@H](C(=O)N1C[C@]2(C[C@H]1C=O)C(=O)Nc1ccccc12)N(C)C(=O)OCc1ccccc1` [Example 24], below 100 nM.
The result for `CC(C)C[C@H](NC(=O)c1cc2c(F)cccc2[nH]1)C(=O)N1C[C@]2(C[C@H]1C=O)C(=O)Nc1ccccc12` [Example 25] reads below 100 nM; that for `COc1cc(C#N)cc2[nH]c(C(=O)N[C@@H](CC(C)C)C(=O)N3C[C@]4(C[C@H]3C#N)C(=O)Nc3ccccc34)cc12` [Example 26], below 100 nM.
With `CC(C)C[C@H](NC(=O)c1cc2c(F)cccc2[nH]1)C(=O)N1C[C@]2(C[C@H]1C#N)C(=O)Nc1ccccc12` [Example 27], the EC50 is below 100 nM.
`CC(C)C[C@H](NC(=O)c1cc2c(F)cccc2[nH]1)C(=O)N1C[C@]2(C[C@H]1C#N)C(=O)Nc1c(F)cccc12` [Example 28] showed an EC50 below 100 nM.
Turning to `COc1cccc2[nH]c(C(=O)N[C@@H](CC(C)C)C(=O)N3C[C@]4(C[C@H]3C(O)S(=O)(=O)O)C(=O)Nc3ccccc34)cc12` (some centres unmarked) [Example 29], the EC50 was below 100 nM.
For `CC(C)C[C@@H](C(=O)N1C[C@]2(C[C@H]1C(O)S(=O)(=O)O)C(=O)Nc1ccccc12)N(C)C(=O)c1cc2c(F)cccc2[nH]1` (some centres unmarked) [Example 30], the EC50 was below 100 nM.
The result for `COc1cccc2[nH]c(C(=O)N[C@@H](CC(C)C)C(=O)N3C[C@]4(C[C@H]3C(=O)C(=O)NC3CC3)C(=O)Nc3ccccc34)cc12` [Example 31] reads 100 to 1000 nM; that for `COc1cccc2[nH]c(C(=O)N[C@@H](CC(C)C)C(=O)N3C[C@]4(C[C@H]3C(=O)C(=O)NCc3ccccc3)C(=O)Nc3ccccc34)cc12` [Example 32], 100 to 1000 nM; that for `COc1cccc2[nH]c(C(=O)N[C@@H](CC(C)C)C(=O)N3C[C@]4(C[C@H]3C(=O)C(=O)NC3CCCCC3)C(=O)Nc3ccccc34)cc12` [Example 33], above 1000 nM.
The result for `COc1cccc2[nH]c(C(=O)N(C)[C@@H](CC(C)C)C(=O)N3C[C@]4(C[C@H]3C(=O)C(=O)NC3CCCCC3)C(=O)Nc3ccccc34)cc12` [Example 34] reads above 1000 nM; that for `CC(C)C[C@@H](C(=O)N1C[C@]2(C[C@H]1C(=O)C(=O)NC1CCCCC1)C(=O)Nc1ccccc12)N(C)C(=O)c1cc2c(F)cccc2[nH]1` [Example 35], above 1000 nM.
In turn, `CC(C)C[C@@H](C(=O)N1C[C@]2(C[C@H]1C(=O)C(=O)NC1CC1)C(=O)Nc1ccccc12)N(C)C(=O)c1cc2c(F)cccc2[nH]1` [Example 36] displayed an EC50 of 100 to 1000 nM.
The result for `COc1cccc2[nH]c(C(=O)N[C@@H](CC(C)C)C(=O)N3C[C@]4(C[C@H]3C(=O)O)C(=O)Nc3ccccc34)cc12` [Example 37] reads 100 to 1000 nM.
For `CC(C)C[C@@H](C(=O)N1C[C@]2(C[C@H]1C#N)C(=O)Nc1ccccc12)N(C)C(=O)OCc1ccccc1` [Example 39] the value was above 1000 nM.
The result for `CN(C(=O)OCc1ccccc1)[C@@H](CC(C)(C)C)C(=O)N1C[C@]2(C[C@H]1C#N)C(=O)Nc1ccccc12` [Example 40] reads 100 to 1000 nM; that for `CN(C(=O)OCc1ccccc1)[C@@H](Cc1ccccc1)C(=O)N1C[C@]2(C[C@H]1C#N)C(=O)Nc1ccccc12` [Example 41], above 1000 nM; that for `COc1cccc2[nH]c(C(=O)N(C)[C@@H](CC(C)C)C(=O)N3C[C@]4(C[C@H]3C#N)C(=O)Nc3ccccc34)cc12` [Example 42], below 100 nM.
In turn, `CC(C)C[C@@H](C(=O)N1C[C@]2(C[C@H]1C#N)C(=O)Nc1ccccc12)N(C)C(=O)c1sc2cc(F)ccc2c1Cl` [Example 43] displayed an EC50 below 100 nM.
Regarding `CC(C)C[C@@H](C(=O)N1C[C@]2(C[C@H]1C#N)C(=O)Nc1ccccc12)N(C)C(=O)c1cc2c(F)cccc2[nH]1` [Example 44], the EC50 was below 100 nM.
In the case of `CC(C)C[C@@H](C(=O)N1C[C@]2(C[C@H]1C#N)C(=O)Nc1ccccc12)N(C)C(=O)c1cc2c(C3CC3)cccc2[nH]1` [Example 45], the EC50 is below 100 nM.
`CC(C)C[C@@H](C(=O)N1C[C@]2(C[C@H]1C#N)C(=O)Nc1ccccc12)N(C)C(=O)c1cc2c(F)cc(F)cc2[nH]1` [Example 46] showed an EC50 below 100 nM.
Molecule `Cc1c(C(=O)N(C)[C@@H](CC(C)C)C(=O)N2C[C@]3(C[C@H]2C#N)C(=O)Nc2ccccc23)[nH]c2cc(F)cc(F)c12` [Example 47] gave an EC50 of 100 to 1000 nM.
In the case of `CC(C)C[C@@H](C(=O)N1C[C@]2(C[C@H]1C#N)C(=O)Nc1ccccc12)N(C)C(=O)c1[nH]c2ccccc2c1-c1ccccc1` [Example 48], the EC50 lay within 100 to 1000 nM.
For `CC(C)C[C@@H](C(=O)N1C[C@]2(C[C@H]1C#N)C(=O)Nc1ccccc12)N(C)C(=O)c1cc2c(OC(F)(F)F)cccc2[nH]1` [Example 49] the value was below 100 nM; for `CC(C)C[C@@H](C(=O)N1C[C@]2(C[C@H]1C#N)C(=O)Nc1ccccc12)N(C)C(=O)c1cc2ccc(F)cc2[nH]1` [Example 50], below 100 nM; for `CC(C)C[C@@H](C(=O)N1C[C@]2(C[C@H]1C#N)C(=O)Nc1ccccc12)N(C)C(=O)c1cc2c(OC(F)F)cccc2[nH]1` [Example 51], below 100 nM.
As for `CC(C)C[C@@H](C(=O)N1C[C@]2(C[C@H]1C#N)C(=O)Nc1ccccc12)N(C)C(=O)c1cc2c(F)cc(F)c(F)c2[nH]1` [Example 52], the EC50 was below 100 nM.
For the molecule `COc1ccc(Cl)c(C(=O)N(C)[C@@H](CC(C)C)C(=O)N2C[C@]3(C[C@H]2C#N)C(=O)Nc2ccccc23)c1` [Example 58], the EC50 is 100 to 1000 nM.
In the case of `CC(C)C[C@@H](C(=O)N1C[C@]2(C[C@H]1C#N)C(=O)Nc1ccccc12)N(C)C(=O)c1ncccc1Cl` [Example 59], the EC50 was above 1000 nM.
The result for `CC(C)C[C@@H](C(=O)N1C[C@]2(C[C@H]1C#N)C(=O)Nc1ccccc12)N(C)C(=O)c1cncc(C#N)c1` [Example 60] reads 100 to 1000 nM; that for `CC(C)C[C@@H](C(=O)N1C[C@]2(C[C@H]1C#N)C(=O)Nc1ccccc12)N(C)C(=O)c1ccc(F)cc1Cl` [Example 61], above 1000 nM; that for `CC(C)C[C@@H](C(=O)N1C[C@]2(C[C@H]1C#N)C(=O)Nc1ccccc12)N(C)C(=O)c1cc(F)ccc1Cl` [Example 62], above 1000 nM.
For the molecule `CC(C)C[C@@H](C(=O)N1C[C@]2(C[C@H]1C#N)C(=O)Nc1ccccc12)N(C)C(=O)c1ccc(F)c(Cl)c1` [Example 63], the EC50 is above 1000 nM.
For `CC(C)C[C@@H](C(=O)N1C[C@]2(C[C@H]1C#N)C(=O)Nc1ccccc12)N(C)C(=O)c1c(Cl)cccc1Cl` [Example 64] the value was above 1000 nM.
The result for `CC(C)C[C@@H](C(=O)N1C[C@]2(C[C@H]1C#N)C(=O)Nc1ccccc12)N(C)C(=O)c1cc2c(Cl)cccc2[nH]1` [Example 65] reads below 100 nM; that for `CC(C)C[C@@H](C(=O)N1C[C@]2(C[C@H]1C#N)C(=O)Nc1ccccc12)N(C)C(=O)c1cc2c(Br)ccc(Cl)c2[nH]1` [Example 66], below 100 nM; that for `CC(C)C[C@@H](C(=O)N1C[C@]2(C[C@H]1C#N)C(=O)Nc1ccccc12)N(C)C(=O)c1cc2c(OC3CC3)cccc2[nH]1` [Example 82], below 100 nM.

The EC50 is the concentration that produces a half-maximal response. A high value points to weaker potency.
